Experimental data as given in patent publication US20100068204A1, “4-ARYLOXYQUINOLIN-2(1H)-ONES AS MTOR KINASE AND PI3 KINASE INHIBITORS, FOR USE AS ANTI-CANCER AGENTS” (Wyeth, priority 2008, published 2010).

Tests used:
[1] = test system: LNCap prostate tumor cells; assay: In vitro cell growth assay (MTS), LNCap; format: cell-based, human; settings: three days after drug treatment
Procedure: (§1) Cell lines used were human adenocarcinoma (LoVo), […], prostate (LNCap), breast (MDA468, MCF7), colon (HCT116), renal (HTB44 A498), and ovarian (OVCAR3) tumor cell lines. The tumor cells were plated in 96-well culture plates at approximately 3000 cells per well. One day following plating, various concentrations of inhibitors in DMSO were added to cells (final DMSO concentration in cell assays was 0.25%). Three days after drug treatment, viable cell densities were determined by cell mediated metabolic conversion of the dye MTS, a well-established indicator of cell proliferation in vitro. Cell growth assays were performed using kits purchased from Promega Corporation (Madison, Wis.), following the protocol provided by the vendor. Measuring absorbance at 490 nm generated MTS assay results. Compound effect on cell proliferation was assessed relative to untreated control cell growth.

human TOR (FLAG-TOR) = human TOR (FLAG-TOR) (Homo sapiens, UniProt P42345); assay: mTOR enzyme assay (DELFIA format, purified enzyme); format: biochemical; settings: 800 ng/ml FLAG-TOR, 100 μM ATP, 1.25 μM His6-S6K; read-out: mTOR Kinase IC50
[2] = test system: MDA468 breast tumor cells; assay: In vitro cell growth assay (MTS), MDA468; format: cell-based, human; settings: three days after drug treatment
Procedure: as §1

PI3Kα = PI3Kα (Homo sapiens, UniProt P42336); assay: PI3Kα fluorescence polarization assay; format: biochemical; settings: 20 μM PIP2, 25 μM ATP
Sequence of PI3Kα (P42336 whole entry, species assumed): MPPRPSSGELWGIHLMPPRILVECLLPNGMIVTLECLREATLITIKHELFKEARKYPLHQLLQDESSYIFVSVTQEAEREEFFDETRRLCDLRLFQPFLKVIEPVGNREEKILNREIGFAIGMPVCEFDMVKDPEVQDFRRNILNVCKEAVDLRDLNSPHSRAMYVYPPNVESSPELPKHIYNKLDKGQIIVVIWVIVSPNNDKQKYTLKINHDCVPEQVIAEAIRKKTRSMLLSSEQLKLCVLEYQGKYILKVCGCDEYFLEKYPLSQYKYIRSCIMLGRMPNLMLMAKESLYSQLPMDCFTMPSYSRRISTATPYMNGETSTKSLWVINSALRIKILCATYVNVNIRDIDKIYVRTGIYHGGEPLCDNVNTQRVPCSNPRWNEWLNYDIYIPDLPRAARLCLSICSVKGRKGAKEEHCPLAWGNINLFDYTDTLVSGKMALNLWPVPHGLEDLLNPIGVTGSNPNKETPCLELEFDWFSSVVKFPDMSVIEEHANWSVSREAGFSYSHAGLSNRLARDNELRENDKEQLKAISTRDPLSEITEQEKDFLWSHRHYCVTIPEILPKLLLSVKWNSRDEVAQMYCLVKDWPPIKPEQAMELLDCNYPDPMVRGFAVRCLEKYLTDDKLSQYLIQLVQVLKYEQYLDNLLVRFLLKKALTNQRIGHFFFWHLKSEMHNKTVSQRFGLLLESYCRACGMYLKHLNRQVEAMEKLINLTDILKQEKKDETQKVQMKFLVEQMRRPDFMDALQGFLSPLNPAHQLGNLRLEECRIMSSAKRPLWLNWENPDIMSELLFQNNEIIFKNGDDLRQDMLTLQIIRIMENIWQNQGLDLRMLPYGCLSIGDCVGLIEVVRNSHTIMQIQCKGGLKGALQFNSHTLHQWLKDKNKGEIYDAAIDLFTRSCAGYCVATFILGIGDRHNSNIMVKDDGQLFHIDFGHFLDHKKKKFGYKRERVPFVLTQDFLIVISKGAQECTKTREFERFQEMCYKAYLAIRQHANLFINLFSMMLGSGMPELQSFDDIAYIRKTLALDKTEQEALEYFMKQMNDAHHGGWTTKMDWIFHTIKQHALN
Sequence of PI3Kα (P27986 whole entry partner, species assumed): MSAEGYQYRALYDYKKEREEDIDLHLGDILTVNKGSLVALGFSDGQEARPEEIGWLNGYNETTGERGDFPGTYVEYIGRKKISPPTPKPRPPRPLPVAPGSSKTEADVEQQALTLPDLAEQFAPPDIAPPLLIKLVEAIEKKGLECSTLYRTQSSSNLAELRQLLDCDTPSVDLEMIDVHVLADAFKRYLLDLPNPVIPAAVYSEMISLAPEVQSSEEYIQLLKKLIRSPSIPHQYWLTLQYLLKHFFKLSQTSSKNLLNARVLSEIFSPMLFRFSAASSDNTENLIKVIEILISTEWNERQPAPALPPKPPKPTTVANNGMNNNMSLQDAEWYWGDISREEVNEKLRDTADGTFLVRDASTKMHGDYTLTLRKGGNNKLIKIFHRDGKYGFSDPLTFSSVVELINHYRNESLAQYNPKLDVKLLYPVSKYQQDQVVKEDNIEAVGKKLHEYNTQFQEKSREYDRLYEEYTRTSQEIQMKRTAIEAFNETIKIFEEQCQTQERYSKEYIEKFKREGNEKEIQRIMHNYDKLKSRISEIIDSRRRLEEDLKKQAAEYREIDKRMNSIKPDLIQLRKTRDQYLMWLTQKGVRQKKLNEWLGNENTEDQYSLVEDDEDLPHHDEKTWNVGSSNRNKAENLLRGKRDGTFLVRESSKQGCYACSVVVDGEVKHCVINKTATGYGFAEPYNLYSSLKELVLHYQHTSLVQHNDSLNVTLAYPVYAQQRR
Procedure: The reaction buffer was 20 mM HEPES pH7.5, 2 mM MgCl2, 0.05% CHAPS, and 0.01% βME (added fresh). The substrate solution was 40 μM PIP2 (diC8, Echelon, Salt Lake City Utah cat #P-4508, 1 mM in water) and 50 μM ATP in the reaction buffer. Nunc 384-well black polypropylene fluorescent plates were used for PI3K assays. The assay is run by putting 9.5 μl of freshly diluted enzyme in the reaction buffer per well, adding 0.5 μl of diluted drug or DMSO, and mixing. Then 10 μl of the substrate solution is added to each well to start the reaction. A final concentration of 20 μM PIP2 and 25 μM ATP in the reaction was used. Reactions were allowed to proceed for 30-60 minutes at room temperature. After 30-60 minutes, 20 μl of a solution of 10 nM TAMRA detector (Red detector probe-Echelon) and 2.5 uM of GST-murine GRP (1.5 mg/ml in 17% glycerol) was added per well to stop the reaction. The resulting solution was mixed well and allowed to stand for 90-110 minutes before reading plate. Assay Plates were read on Perkin-Elmer Envision plate readers with appropriate filters for Tamra [BODIPY-TMRI(1,3,4,5)P4]. Data obtained were used to calculate enzymatic activity and enzyme inhibition by inhibitor compounds. It is important to keep Red probe solutions dark. This procedure is adapted from Echelon Biosciences Inc procedure for their PI3-Kinase fluorescence polarization activity Assay kit Product number K-1100.

Compound	IC50 ([1]; Homo sapiens, LNCaP, 72 h) [µM]	IC50 (human TOR (FLAG-TOR)) [µM]	IC50 ([2]; Homo sapiens, 72 h) [µM]	IC50 (PI3Kα) [µM]	IC50 [1] [µM]	IC50 [2] [µM]
O=c1cc(Oc2ccccc2)c2ccc(Br)cc2[nH]1	> 60	> 20	> 60	5.39		
O=c1cc(Oc2cccc(NCc3ccccc3N3CCOCC3)c2)c2ccccc2[nH]1	9	0.33	24	5.62		
O=c1cc(Oc2cccc(NCc3cccnc3Cl)c2)c2ccccc2[nH]1 [drawing 217]		0.15		> 10	4.2	10
CN(C)CCCOc1ccc(-c2cccc(Oc3cc(=O)[nH]c4ccccc34)c2)cn1	3.8	0.08	10	> 10		
O=c1cc(Oc2cccc(NC3CCN(Cc4ccccn4)CC3)c2)c2ccccc2[nH]1	6.5	0.19	19	> 10		
O=c1cc(Oc2ccccc2C(F)(F)F)c2ccccc2[nH]1	> 60	1.65	> 60	0.308		
O=c1cc(Oc2cccc(OCCO)c2)c2ccccc2[nH]1	6	0.34	> 60	12		
O=c1cc(Oc2cccnc2)c2ccccc2[nH]1 [drawing 388]	> 60	1.16	> 60	> 10		
CC(C)(C)CNc1ncccc1CNc1cccc(Oc2cc(=O)[nH]c3ccccc23)c1	4.2	0.16	10			
O=c1cc(Oc2ccccc2)c2cc(Br)ccc2[nH]1		> 20		> 10		
CC(=O)Nc1ccc(Oc2cc(=O)[nH]c3ccccc23)cc1		6		7.28		
Nc1ncccc1CNc1cccc(Oc2cc(=O)[nH]c3ccccc23)c1	4	0.07		> 10		
O=c1cc(Oc2ccccc2)c2ccc(Cl)cc2[nH]1		> 20		0.308		
CN1CCC(N(C)c2cccc(-c3cccc(Oc4cc(=O)[nH]c5ccccc45)c3)c2)CC1	3	0.33		8.31		
CC(C)(C)OC(=O)Nc1ccc(CNc2cccc(Oc3cc(=O)[nH]c4ccccc34)c2)cn1	12	0.42	60			
O=c1cc(Oc2cccc(NCc3ccsc3)c2)c2ccccc2[nH]1	35	0.12		> 10		
O=c1cc(Oc2ccccn2)c2ccccc2[nH]1 [drawing 389]	> 60	9.7		8.74		
O=c1cc(Oc2cccc(NCc3ccc(F)nc3)c2)c2ccccc2[nH]1 [drawing 218]					13	50
O=c1cc(Oc2cccc(NCc3ccc(F)nc3)c2)c2ccccc2[nH]1 [drawing 208]				9.54	4	11
CN1CCN(c2cccc(Oc3cc(=O)[nH]c4ccccc34)c2)CC1 [drawing 359]	0.62	0.37		10.3		
O=c1cc(Oc2ccccc2)c2cc(-c3ccccc3)ccc2[nH]1		8.2		8.23		
O=c1cc(Oc2cccc(NCc3ccc(-n4ccnc4)cc3)c2)c2ccccc2[nH]1	4	0.08		> 10		
CN(C)CCCN1CCN(c2cccc(Oc3cc(=O)[nH]c4ccccc34)c2)CC1	7	0.72	10.5			
O=c1cc(Oc2cccc(NCc3ccccc3)c2)c2ccccc2[nH]1	6	0.14		3.78		
COC[C@@H]1CCCN1CCNc1ccc(-c2cccc(Oc3cc(=O)[nH]c4ccccc34)c2)cc1	5	0.13		11		
O=c1cc(Oc2cccc(OCc3ccccc3)c2)c2ccccc2[nH]1 [drawing 351]	> 60		> 60	4.15		
O=c1cc(Oc2ccccc2)c2cc(-c3ccncc3)ccc2[nH]1	60		60	3.94		
